Among the data in patent US10584115B2, “Substituted pyridine and pyrazine BMI-1 inhibitors” (PTC Therapeutics, Inc., priority 2013, dated 2020) are melting point and EC50 values, retold here.

Read-outs that look alike come from different tables or passages of the source.

The subject of one series is Bmi-1 protein. Briefly: Sandwich ELISA Assay (Bmi-1 protein level in HT-1080 cells after compound treatment). Format: cell-based. In a few lines:
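Sandwich ELISA quantified Bmi-1 protein against recombinant standard (125–8000 pg/mL), with lysates captured overnight at 4 °C and signal by HRP/TMB at 450 nm (570 nm reference). Lysates came from HT-1080 cells incubated 40–48 h with test compounds in 0.5% DMSO.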

[1] abbreviates: Table 1, Bmi-1 sandwich ELISA, read-out: ELISA EC50 value for Bmi-1 protein.
Where [2] appears, read: read-out: ELISA EC50 value for Bmi-1 protein, Table 1, Bmi-1 sandwich ELISA.

`CCc1nn2ccc(F)cc2c1-c1cncc(Nc2ccc(C(F)(F)F)cc2)n1` [compound 551, 6-(2-ethyl-5-fluoropyrazolo[1,5-a]pyridin-3-yl)-N-[4-(trifluoromethyl)phenyl]pyrazin-2-amine]: the melting point was 129 to 131 °C. Besides, the EC50 with Bmi-1 protein (setting [1]) lay within 100 to 3000 nM.
As to `CCn1nc(C(F)(F)F)c(-c2cncc(Nc3ccc(OC(F)(F)F)cc3)n2)c1C` [compound 331, 6-[1-ethyl-5-methyl-3-(trifluoromethyl)-1H-pyrazol-4-yl]-N-[4-(trifluoromethoxy)phenyl]pyrazin-2-amine], the melting point was in the range of 128 to 129 °C. For the same molecule, the EC50 in the series with Bmi-1 protein (setting [1]) was 100 to 3000 nM.
As for `Cc1c(-c2cncc(Nc3ccc(OC(F)(F)F)cc3)n2)c(C(F)(F)F)nn1C` [compound 281, 6-[1,5-dimethyl-3-(trifluoromethyl)-1H-pyrazol-4-yl]-N-[4-(trifluoromethoxy)phenyl]pyrazin-2-amine], the melting point fell in the range of 157 to 158 °C. The 50% effective concentration (EC50) with Bmi-1 protein (setting [1]) was 100 to 3000 nM.
With `Cc1nc2ccc(F)cc2n1-c1cncc(Nc2ccc(C#N)cc2)n1` [compound 555, 4-{[6-(6-fluoro-2-methyl-1H-benzimidazol-1-yl)pyrazin-2-yl]amino}benzonitrile], the melting point lay within 300 to 303 °C. Moreover, in the series with Bmi-1 protein (setting [1]), the EC50 lay within 100 to 3000 nM.
`Fc1ccc2nc(C(F)F)n(-c3cncc(Nc4ccc(C(F)(F)F)cc4)n3)c2c1` [compound 486, 6-[2-(difluoromethyl)-6-fluoro-1H-benzimidazol-1-yl]-N-[4-(trifluoromethyl)phenyl]pyrazin-2-amine]: the melting point was in the range of 197 to 199 °C. For the same molecule, in the series with Bmi-1 protein (setting [1]), the EC50 lay within 10 to 100 nM.
Take `Cc1nn(C)c(C)c1-c1cccc(Nc2ccc(OC(F)F)cc2)n1` [compound 146, N-[4-(difluoromethoxy)phenyl]-6-(1,3,5-trimethyl-1H-pyrazol-4-yl)pyridin-2-amine]: the melting point was in the range of 71 to 72 °C. For the same molecule, in the series on Bmi-1 protein (setting [1]), the EC50 lay within 10 to 100 nM.
Molecule `COc1ccc(Nc2cncc(-c3c(C)noc3C)n2)cn1` [compound 638, 6-(3,5-dimethyl-1,2-oxazol-4-yl)-N-(6-methoxypyridin-3-yl)pyrazin-2-amine] came in with a melting point of 173 to 174 °C. Also, the EC50 in the series on Bmi-1 protein (setting [1]) lay within 100 to 3000 nM.
Taken in the same sequence, the figures for `FC(F)(F)c1ccc(Nc2cncc(-c3c(C4CCC4)nc4ccccn34)n2)cc1` [compound 131, 6-(2-cyclobutylimidazo[1,2-a]pyridin-3-yl)-N-[4-(trifluoromethyl)phenyl]pyrazin-2-amine] were 218 to 219 °C and 1 to 10 nM.
On the same counts, the results for `Cc1nc2ccc(F)cc2n1-c1cc(C#N)cc(Nc2ccc(C(F)(F)F)cc2)n1` [compound 261, 2-(6-fluoro-2-methyl-1H-benzimidazol-1-yl)-6-{[4-(trifluoromethyl)phenyl]amino}pyridine-4-carbonitrile] are 223 to 225 °C and 10 to 100 nM.
Take `CCc1nn(C)c(CC)c1-c1cncc(Nc2ccc(C(F)(F)F)cc2)n1` [compound 332, 6-(3,5-diethyl-1-methyl-1H-pyrazol-4-yl)-N-[4-(trifluoromethyl)phenyl]pyrazin-2-amine]: the melting point was in the range of 59 to 60 °C. Besides, in the series with Bmi-1 protein (setting [1]), the half-maximal effective concentration (EC50) was 10 to 100 nM.
Regarding `CS(=O)(=O)c1ccc(Nc2cncc(-c3c(C(F)(F)F)nc4ccccn34)n2)cc1` [compound 68, N-[4-(methylsulfonyl)phenyl]-6-[2-(trifluoromethyl)imidazo[1,2-a]pyridin-3-yl]pyrazin-2-amine], the melting point is 256 to 258 °C. Moreover, in the series on Bmi-1 protein (setting [2]), the EC50 was 100 to 3000 nM.
`CCn1nc(C)c(-c2cncc(Nc3ccc(C(F)(F)F)cc3)n2)c1C` [compound 175, 6-(1-ethyl-3,5-dimethyl-1H-pyrazol-4-yl)-N-[4-(trifluoromethyl)phenyl]pyrazin-2-amine] had a melting point of 78 to 79 °C. Also, the EC50 in the series with Bmi-1 protein (setting [2]) was in the range of 1 to 10 nM.
`Cc1nc2ccc(F)cc2n1-c1cncc(Nc2ccc(N)cc2)n1` [compound 558, N-[6-(6-fluoro-2-methyl-1H-benzimidazol-1-yl)pyrazin-2-yl]benzene-1,4-diamine] yielded a melting point of 189 to 191 °C. Besides, in the series with Bmi-1 protein (setting [1]), the EC50 was in the range of 10 to 100 nM.
Molecule `COc1cccc(Nc2cc(C#N)cc(-c3c(C)nc4ccc(F)cn34)n2)c1` [compound 650, 2-(6-fluoro-2-methylimidazo[1,2-a]pyridin-3-yl)-6-[(3-methoxyphenyl)amino}pyridine-4-carbonitrile] yielded a melting point of 247 to 250 °C. Moreover, in the series with Bmi-1 protein (setting [1]), the EC50 was in the range of 100 to 3000 nM.
`Cc1csc(Nc2cccc(-c3c(C(F)(F)F)nc4ccccn34)n2)n1` [compound 148, N-(4-methyl-1,3-thiazol-2-yl)-6-[2-(trifluoromethyl)imidazo[1,2-a]pyridin-3-yl]pyridin-2-amine] yielded a melting point of 259 to 261 °C. The half-maximal effective concentration (EC50) in the series with Bmi-1 protein (setting [1]) lay within 10 to 100 nM.
Taken in the same sequence, the figures for `Fc1ccc2nc(C3CC3)c(-c3cncc(Nc4ccc(OC(F)F)c(F)c4)n3)n2c1` [compound 338, 6-(2-cyclopropyl-6-fluoroimidazo[1,2-a]pyridin-3-yl)-N-[4-(difluoromethoxy)-3-fluorophenyl]pyrazin-2-amine] were 173 to 175 °C and 1 to 10 nM.
Taken in the same sequence, the figures for `Cc1nc2ncc(F)cn2c1-c1cc(C#N)cc(Nc2ccc(OC(F)F)c(F)c2)n1` [compound 439, 2-{[4-(difluoromethoxy)-3-fluorophenyl]amino}-6-(6-fluoro-2-methylimidazo[1,2-a]pyrimidin-3-yl)pyridine-4-carbonitrile] were 268 to 270 °C and 10 to 100 nM.
Consider `CCn1nc(C)c(-c2cncc(Nc3ccc(OC(F)(F)F)cc3)n2)c1C` [compound 84, 6-(1-ethyl-3,5-dimethyl-1H-pyrazol-4-yl)-N-[4-(trifluoromethoxy)phenyl]pyrazin-2-amine], for which the melting point is 142 to 143 °C. Besides, the EC50 in the series on Bmi-1 protein (setting [1]) fell in the range of 1 to 10 nM.
Take `Cc1nc2ccc(F)cn2c1-c1cc(N)cc(Nc2ccc(C(F)(F)F)cc2)n1` [compound 316, 6-(6-fluoro-2-methylimidazo[1,2-a]pyridin-3-yl)-N^2-[4-(trifluoromethyl)phenyl]pyridine-2,4-diamine]: the melting point fell in the range of 161 to 163 °C. Also, the EC50 in the series on Bmi-1 protein (setting [2]) lay within 1 to 10 nM.
Consider `Cc1nn(CCn2ncnn2)c(C)c1-c1cncc(Nc2ccc(C(F)(F)F)cc2)n1` [compound 352, 6-{3,5-dimethyl-1-[2-(2H-tetrazol-2-yl)ethyl]-1H-pyrazol-4-yl}-N-[4-(trifluoromethyl)phenyl]pyrazin-2-amine], for which the melting point lay in the range of 138 to 139 °C. Further, the concentration giving a half-maximal response (EC50) with Bmi-1 protein (setting [2]) lay within 1 to 10 nM.
Take `Cc1nc2cc(F)ccc2n1-c1cncc(Nc2ccc(OC(F)F)cc2)n1` [compound 205, N-[4-(difluoromethoxy)phenyl]-6-(5-fluoro-2-methyl-1H-benzimidazol-1-yl)pyrazin-2-amine]: the melting point lay in the range of 239 to 241 °C. In addition, the EC50 in the series on Bmi-1 protein (setting [1]) fell in the range of 10 to 100 nM.
`FC(F)Oc1ccc(Nc2cncc(-c3c(C4CC4)nc4ccccn34)n2)cc1` [compound 130, 6-(2-cyclopropylimidazo[1,2-a]pyridin-3-yl)-N-[4-(difluoromethoxy)phenyl]pyrazin-2-amine] displayed a melting point of 208 to 210 °C. Besides, the concentration giving a half-maximal response (EC50) with Bmi-1 protein (setting [1]) was 1 to 10 nM.
`CCc1nc2ccc(F)cc2n1-c1cncc(Nc2cccc(OC)c2)n1` [compound 624, 6-(2-ethyl-6-fluoro-1H-benzimidazol-1-yl)-N-(3-methoxyphenyl)pyrazin-2-amine] had a melting point of 179 to 181 °C. In addition, the concentration for a half-maximal effect (EC50) in the series on Bmi-1 protein (setting [1]) is 10 to 100 nM.
The molecule `CCc1nc2ccc(F)cc2n1-c1cncc(Nc2cccc(Cl)c2)n1` [compound 625, N-(3-chlorophenyl)-6-(2-ethyl-6-fluoro-1H-benzimidazol-1-yl)pyrazin-2-amine] returned a melting point of 192 to 195 °C. For the same molecule, in the series on Bmi-1 protein (setting [1]), the EC50 lay in the range of 100 to 3000 nM.
On the same counts, the results for `Cc1nc2ccc(F)cn2c1-c1cncc(Nc2ccc(C(F)(F)F)c(F)c2)n1` [compound 310, 6-(6-fluoro-2-methylimidazo[1,2-a]pyridin-3-yl)-N-[3-fluoro-4-(trifluoromethyl)phenyl]pyrazin-2-amine] are 216 to 218 °C and 10 to 100 nM.
For the molecule `FC(F)Oc1ccc(Nc2cncc(-c3cccc4nc(C5CCC5)cn34)n2)cc1` [compound 115, 6-(2-cyclobutylimidazo[1,2-a]pyridin-5-yl)-N-[4-(difluoromethoxy)phenyl]pyrazin-2-amine], the melting point was 252 to 253 °C. Further, the EC50 in the series on Bmi-1 protein (setting [1]) was 10 to 100 nM.
`Cc1nc2ccc(F)cn2c1-c1cncc(Nc2ccc(OC(F)F)cc2)n1` [compound 245, N-[4-(difluoromethoxy)phenyl]-6-(6-fluoro-2-methylimidazo[1,2-a]pyridin-3-yl)pyrazin-2-amine] displayed a melting point of 171 to 173 °C. Also, the half-maximal effective concentration (EC50) with Bmi-1 protein (setting [1]) lay within 1 to 10 nM.
Molecule `CCc1nc2ccc(F)cc2n1-c1cncc(Nc2cccc(F)c2)n1` [compound 626, 6-(2-ethyl-6-fluoro-1H-benzimidazol-1-yl)-N-(3-fluorophenyl)pyrazin-2-amine] came in with a melting point of 228 to 230 °C. Besides, the EC50 with Bmi-1 protein (setting [1]) lay in the range of 100 to 3000 nM.
Molecule `COc1cccc(Nc2cncc(-c3c(C)nc4ccc(F)cn34)n2)c1` [compound 596, 6-(6-fluoro-2-methylimidazo[1,2-a]pyridin-3-yl)-N-(3-methoxyphenyl)pyrazin-2-amine] returned a melting point of 270 to 273 °C. Moreover, the concentration for a half-maximal effect (EC50) in the series with Bmi-1 protein (setting [1]) is 1 to 10 nM.
On the same counts, the results for `Cc1nc2ccc(F)cn2c1-c1cncc(Nc2cccc(Cl)c2)n1` [compound 597, N-(3-chlorophenyl)-6-(6-fluoro-2-methylimidazo[1,2-a]pyridin-3-yl)pyrazin-2-amine] are 272 to 275 °C and 10 to 100 nM.

One may read the melting point as the temperature of the solid-liquid transition. As usually defined, the EC50 is the concentration at which the effect is half-maximal.
